The results in this text go back to PubChem BioAssay AID493133 (Sanford-Burnham Center for Chemical Genomics, 2011).

Usually EC50 stands for the concentration that produces a half-maximal response.

The source made the active and inactive calls. No rule for the calls is given here.

Chain of Alkaline phosphatase, tissue-nonspecific isozyme (Homo sapiens) (P05186 whole entry, looked up): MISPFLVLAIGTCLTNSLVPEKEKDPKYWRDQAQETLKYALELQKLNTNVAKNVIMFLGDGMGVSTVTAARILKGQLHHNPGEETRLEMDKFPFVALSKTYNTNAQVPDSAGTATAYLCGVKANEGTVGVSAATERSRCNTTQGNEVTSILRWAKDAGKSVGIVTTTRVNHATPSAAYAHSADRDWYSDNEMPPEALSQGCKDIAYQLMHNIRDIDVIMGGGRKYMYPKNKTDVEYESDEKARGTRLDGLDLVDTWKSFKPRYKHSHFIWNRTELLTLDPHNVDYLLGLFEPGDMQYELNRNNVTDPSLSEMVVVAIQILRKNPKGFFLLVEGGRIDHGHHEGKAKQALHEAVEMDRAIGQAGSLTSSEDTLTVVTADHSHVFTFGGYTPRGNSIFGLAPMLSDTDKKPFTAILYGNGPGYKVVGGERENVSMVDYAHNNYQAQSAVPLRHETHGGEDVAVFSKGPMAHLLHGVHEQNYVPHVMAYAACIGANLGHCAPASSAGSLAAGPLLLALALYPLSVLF

This test has as its target Alkaline phosphatase, tissue-nonspecific isozyme (Homo sapiens) (UniProt P05186). The test can be described thus: TNAP enzyme activity modulation, counter to mouse IAP activators, SAR follow-up, selectivity assay for mouse IAP activator project, biochemical (AID 493133). To be noted: purified human TNAP enzyme, phosphatase activity counter-screen. (The purpose of a counterscreen is to sort out artefacts and off-target activity.)
Consider `N#Cc1c(SCC(=O)Nc2cccc(F)c2)sc2c(O)cc(=O)[nH]c12`, for which the EC50 is > 100 µM (inactive).

As for `O=C1/C(=C/c2ccco2)SC(=S)N1C1CCS(=O)(=O)C1` (centres undefined), the EC50 is > 100 µM (inactive). `C/C(=N\NC(=O)c1cc(O)c(O)c(O)c1)c1ccncc1`: the EC50 was > 100 µM (inactive). The value for `Cc1ccc(NC(=O)CSc2sc3c(O)cc(=O)[nH]c3c2C#N)c(F)c1` was > 100 µM (inactive).

For `N#Cc1c(SCC(=O)Nc2ccc(Cl)cc2Cl)sc2c(O)cc(=O)[nH]c12`, the EC50 was > 100 µM (inactive). `CCN(CC)C(=O)CSc1sc2c(O)cc(=O)[nH]c2c1C#N`: the EC50 was > 100 µM (inactive).

With `COc1ccccc1CNC(=O)CCNS(=O)(=O)c1ccc2[nH]c(=O)oc2c1`, the EC50 is > 100 µM (inactive). The value for `N#Cc1c(SCC(=O)Nc2nc3ccccc3s2)sc2c(O)cc(=O)[nH]c12` was > 100 µM (inactive). Consider `COc1ccccc1NC(=O)CSc1sc2c(O)cc(=O)[nH]c2c1C#N`, for which the EC50 is > 100 µM (inactive). With `COc1cc(Cl)c(C)cc1NC(=O)CSc1sc2c(O)cc(=O)[nH]c2c1C#N` the figure was > 100 µM (inactive); with `O=C(CN1C(=O)/C(=C/c2ccco2)SC1=S)N[C@@H]1CSC[C@@H]1O`, > 100 µM (inactive). With `CC(C(=O)Nc1ccc(C(=O)O)cc1)N1C(=O)/C(=C\c2ccco2)SC1=S` (centres undefined) the figure was > 100 µM (inactive); with `CN1CCC(=NNC(=O)c2cc(O)c(O)c(O)c2)CC1`, > 100 µM (inactive). With `CCCSc1nnc(NC(=O)CSc2sc3c(O)cc(=O)[nH]c3c2C#N)s1` the figure was > 100 µM (inactive); with `O=C(N/N=C/c1ccccc1F)c1cc(O)c(O)c(O)c1`, > 100 µM (inactive). `COc1ccc(OC)c(NC(=O)CCNS(=O)(=O)c2ccc3[nH]c(=O)oc3c2)c1`: the EC50 was > 100 µM (inactive). Turning to `FC(F)(F)c1cccc(NC(=S)NCCC(c2ccccc2)c2ccccc2)c1`, the 50% effective concentration (EC50) is 84.5 µM. With `N#Cc1cccc(NC(=O)CSc2sc3c(O)cc(=O)[nH]c3c2C#N)c1` the figure was > 100 µM (inactive). The value for `CN(C(=O)CN1C(=O)/C(=C\c2ccco2)SC1=S)C1CCS(=O)(=O)C1` (centres undefined) was > 100 µM (inactive); that for `N#Cc1c(SCC(=O)NCc2ccc3c(c2)OCO3)sc2c(O)cc(=O)[nH]c12` was > 100 µM (inactive). As to `N#Cc1c(SCC(=O)Nc2nccs2)sc2c(O)cc(=O)[nH]c12`, the EC50 is > 100 µM (inactive). The value for `CCOC(=O)N1CCC(NC(=O)CSc2sc3c(O)cc(=O)[nH]c3c2C#N)CC1` was > 100 µM (inactive). Take `O=C(N/N=C/C1CC=CCC1)c1cc(O)c(O)c(O)c1` (centres undefined): the EC50 is > 100 µM (inactive). The value for `O=C(CCNS(=O)(=O)c1ccc2[nH]c(=O)oc2c1)Nc1cccc(-c2ccno2)c1` was > 100 µM (inactive). The value for `O=C(CN1C(=O)/C(=C\c2ccco2)SC1=S)Nc1cccc(C(=O)O)c1` was > 100 µM (inactive). With `O=C(CN1C(=O)/C(=C/c2ccco2)SC1=S)Nc1ccc(O)c(C(=O)O)c1` the figure was > 100 µM (inactive). In the case of `N#Cc1c(SCC(=O)Nc2ccc(C(F)(F)F)cc2)sc2c(O)cc(=O)[nH]c12`, the EC50 is > 100 µM (inactive). Turning to `O=C(CN1C(=O)/C(=C/c2ccco2)SC1=S)NCCc1ccc(O)cc1`, the EC50 is > 100 µM (inactive).

For `COc1ccc(N2CCN(C(=O)CN3C(=O)/C(=C\c4ccco4)SC3=S)CC2)cc1`, the EC50 was > 100 µM (inactive).

As to `COc1cccc(NC(=O)CN(C)S(=O)(=O)c2ccc3[nH]c(=O)oc3c2)c1`, the EC50 is > 100 µM (inactive). With `CCc1ccc(NC(=O)CN(C)S(=O)(=O)c2ccc3[nH]c(=O)oc3c2)cc1` the figure was > 100 µM (inactive). In the case of `O=C(CN1C(=O)/C(=C/c2ccco2)SC1=S)NC1C=CS(=O)(=O)C1` (centres undefined), the EC50 is > 100 µM (inactive).

Consider `O=C(CCCN1C(=O)/C(=C\c2ccco2)SC1=S)Nc1ccc(O)cc1C(=O)O`, for which the EC50 was > 100 µM (inactive). Take `COc1cc(C(=O)NNc2nc3cc4c(cc3s2)OCO4)cc(OC)c1OC`: the EC50 is 18.4 µM. `CC(C)NC(=O)CSc1sc2c(O)cc(=O)[nH]c2c1C#N`: the EC50 was > 100 µM (inactive). As for `CCOc1cccc(NC(=O)CSc2sc3c(O)cc(=O)[nH]c3c2C#N)c1`, the EC50 was > 100 µM (inactive). Turning to `O=C(CCN1C(=O)/C(=C/c2ccco2)SC1=S)Nc1ccc(C(=O)O)c(O)c1`, the EC50 was > 100 µM (inactive). In the case of `Cc1ccc(/C=C2\SC(=S)N(C3CCS(=O)(=O)C3)C2=O)o1` (centres undefined), the EC50 is > 100 µM (inactive).

Take `O=C(CCN1C(=O)/C(=C\c2ccco2)SC1=S)Nc1ccc(C(=O)O)c(O)c1`: the EC50 is > 100 µM (inactive). For `O=C(CN1C(=O)/C(=C/c2ccco2)SC1=S)Nc1ccc(C(=O)O)c(O)c1`, the EC50 is > 100 µM (inactive). For the compound `CC(C)C(C(=O)NC1CCS(=O)(=O)C1)N1C(=O)/C(=C\c2ccco2)SC1=S` (centres undefined), the EC50 was > 100 µM (inactive).

Turning to `O=C(CCCN1C(=O)/C(=C/c2ccco2)SC1=S)Nc1ccccc1`, the EC50 is > 100 µM (inactive). Consider `O=C(CN1C(=O)/C(=C\c2ccco2)SC1=S)Nc1ccc(C(=O)O)cc1`, for which the EC50 was > 100 µM (inactive).

`O=C(CN1C(=O)/C(=C/c2ccco2)SC1=S)NC1CCS(=O)(=O)C1` (centres undefined): the EC50 is > 100 µM (inactive). The value for `COc1ccc(NC(=O)CSc2sc3c(O)cc(=O)[nH]c3c2C#N)c(OC)c1` was > 100 µM (inactive); that for `N#Cc1c(SCC(=O)Nc2nncs2)sc2c(O)cc(=O)[nH]c12` was > 100 µM (inactive).

In the case of `COC(=O)c1ccc(C)c(NC(=O)CSc2sc3c(O)cc(=O)[nH]c3c2C#N)c1`, the EC50 is > 100 µM (inactive).

Take `CCSc1nnc(NC(=O)CSc2sc3c(O)cc(=O)[nH]c3c2C#N)s1`: the EC50 is > 100 µM (inactive).

As for `CC(C(=O)N(C)C1CCS(=O)(=O)C1)N1C(=O)/C(=C/c2ccco2)SC1=S` (centres undefined), the EC50 is > 100 µM (inactive). With `CC(C(=O)NCCc1ccc(O)c(O)c1)N1C(=O)/C(=C\c2ccco2)SC1=S` (centres undefined) the figure was > 100 µM (inactive). On to `O=C(C1CCN(S(=O)(=O)c2ccc3[nH]c(=O)oc3c2)CC1)N1CC=C(c2ccccc2)CC1`, for which the EC50 is > 100 µM (inactive). With `O=C(N/N=C/c1ccc(F)cc1)c1cc(O)c(O)c(O)c1` the figure was > 100 µM (inactive). Regarding `CC(C)N1CCC(=NNC(=O)c2cc(O)c(O)c(O)c2)CC1`, the EC50 was > 100 µM (inactive). With `Cc1ccc(Cl)cc1NC(=O)CSc1sc2c(O)cc(=O)[nH]c2c1C#N` the figure was > 100 µM (inactive).

As to `Cc1ccc(/C=N/NC(=O)c2cc(O)c(O)c(O)c2)cc1`, the EC50 is > 100 µM (inactive). With `N#Cc1cccc(NC(=O)CCNS(=O)(=O)c2ccc3[nH]c(=O)oc3c2)c1` the figure was > 100 µM (inactive). Regarding `Cc1ccc(NC(=O)CCNS(=O)(=O)c2ccc3[nH]c(=O)oc3c2)c(C)c1`, the EC50 is > 100 µM (inactive). On to `O=C(N/N=C/c1ccsc1)c1cc(O)c(O)c(O)c1`, for which the EC50 is > 100 µM (inactive).

Take `Cc1cc(NC(=O)CSc2sc3c(O)cc(=O)[nH]c3c2C#N)ccc1Br`: the EC50 is > 100 µM (inactive).
